What all share (format): cell-based
In assay [1] the target is T1, hM3 (human Muscarinic receptor subtype 3) (Homo sapiens, UniProt P20309).
T1 construct: expressed in transfected cells; host or cells: CHO cells (Chinese hamster ovary cells, ATCC)
As to the kind of experiment: Human M3 calcium mobilization FLIPR assay. Conditions: CHO cells expressing hM3, intracellular Ca2+ release. As to the method:
(§1) The compound activity in the present invention (EC50 or IC50) is measured using a 384 plate-based imaging assay that monitors drug induced intracellular Ca^2+ release in whole cells. Activation of hM1 (human Muscarinic receptor subtype 1, gene bank access NM_000738), rM1 (rat Muscarinic receptor subtype 1, gene bank access NM_080773), hM3 (human Muscarinic receptor subtype 3, gene bank access NM_000740NM_000740) and hM5 (human Muscarinic receptor subtype 5, gene bank access NM_0121258), receptors expressed in CHO cells (Chinese hamster ovary cells, ATCC) is quantified in a Molecular Devices FLIPR II™ instrument as an increase in fluorescent signal. Inhibition of hM3 and hM5 by compounds is determined by the decrease in fluorescent signal in response to 2 nM acetylcholine activation.
(§2) Prior to experiment, the cell culture medium is removed from the plates by inversion. […] Plates are incubated at 37° C. for 60 minutes prior to start the experiment. The incubation is terminated by washing the cells four times in assay buffer, leaving a residual 25 μl buffer per well. Cell plates are then transferred to the FLIPR, ready for compound additions.
(§3) The day of experiment, acetylcholine and compounds are diluted in assay buffer in three-fold concentration range (10 points serial dilution) for addition by FLIPR instrument. For all calcium assays, a baseline reading is taken for 10 seconds followed by the addition of 12.5 μl of compounds, resulting in a total well volume of 37.5 μl. Data is collected every second for 60 pictures and then every 6 seconds for 20 pictures prior to the addition of agonist. For hM3 and hM5, before agonist addition, a second baseline reading is taken for 10 seconds followed by the addition of 12.5 μl of agonist or buffer, producing a final volume of 50 μl. After agonist stimulation, the FLIPR continues to collect data every second for 60 pictures and then every 6 seconds for 20 pictures. The fluorescence emission is read using filter 1 (emission 510-570 nm) by the FLIPR on board CCD camera.
(§4) Calcium mobilization output data are calculated as the maximal relative fluorescence unit (RFU) minus the minimal value for both compound and agonist reading frame (except for hM1 and rM1 using only the maximal RFU). Data are analyzed using sigmoidal fits of a non-linear curve-fitting program (XLfit version 4.2.2 Excel add-in version 4.2.2 build 18 math 1Q version 2.1.2 build 18). All pEC50 and pIC50 values are reported as arithmetic means±standard error of mean of ‘n’ independent experiments.
For orientation: Calcium assays in cells follow changes in intracellular calcium, usually with a dye or a luminescent sensor.

Assay [2] concerns the target T2, hM1 (human Muscarinic receptor subtype 1) (Homo sapiens, UniProt P11229).
T2 construct: expressed in transfected cells; host or cells: CHO cells (Chinese hamster ovary cells, ATCC)
T2 sequence (P11229 1-460): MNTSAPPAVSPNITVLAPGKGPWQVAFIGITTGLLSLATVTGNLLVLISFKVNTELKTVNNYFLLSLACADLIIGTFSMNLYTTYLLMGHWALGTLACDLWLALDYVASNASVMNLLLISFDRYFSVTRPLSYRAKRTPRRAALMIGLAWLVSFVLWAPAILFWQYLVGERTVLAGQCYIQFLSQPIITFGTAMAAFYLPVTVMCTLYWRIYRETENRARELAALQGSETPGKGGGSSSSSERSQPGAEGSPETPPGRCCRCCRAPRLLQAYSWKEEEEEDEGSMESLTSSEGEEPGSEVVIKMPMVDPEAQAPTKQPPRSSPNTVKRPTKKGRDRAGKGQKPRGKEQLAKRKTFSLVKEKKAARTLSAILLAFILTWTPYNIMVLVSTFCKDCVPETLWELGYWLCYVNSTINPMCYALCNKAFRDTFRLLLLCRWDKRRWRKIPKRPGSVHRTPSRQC
As to the kind of experiment: Human M1 calcium mobilization FLIPR assay. The note with it: CHO cells expressing hM1, intracellular Ca2+ release. As to the method:
as §1, §2, §3, §4

Assay [3] has as its target T3, hM5 (human Muscarinic receptor subtype 5) (Homo sapiens, UniProt P08912).
T3 construct: expressed in transfected cells; host or cells: CHO cells (Chinese hamster ovary cells, ATCC)
T3 sequence (P08912 1-532): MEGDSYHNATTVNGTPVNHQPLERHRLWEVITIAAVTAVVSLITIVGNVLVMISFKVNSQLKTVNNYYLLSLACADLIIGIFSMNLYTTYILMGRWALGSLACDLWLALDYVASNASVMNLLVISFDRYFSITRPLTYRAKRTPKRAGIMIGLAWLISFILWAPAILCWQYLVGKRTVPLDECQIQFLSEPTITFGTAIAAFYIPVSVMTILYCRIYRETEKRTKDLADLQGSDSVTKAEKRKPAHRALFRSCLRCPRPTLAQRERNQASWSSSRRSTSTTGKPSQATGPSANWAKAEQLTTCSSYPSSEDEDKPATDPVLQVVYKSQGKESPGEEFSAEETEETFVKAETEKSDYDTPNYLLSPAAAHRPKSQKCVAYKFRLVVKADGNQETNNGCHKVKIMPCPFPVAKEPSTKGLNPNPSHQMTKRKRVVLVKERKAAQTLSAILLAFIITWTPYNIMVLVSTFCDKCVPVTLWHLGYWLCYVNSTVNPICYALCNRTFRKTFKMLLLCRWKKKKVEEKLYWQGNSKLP
As to the kind of experiment: Human M5 calcium mobilization FLIPR assay. The note with it: CHO cells expressing hM5, intracellular Ca2+ release. As to the method: as §1, §2, §3, §4

A value given as a limit tells only on which side of the number the result lay.

T1 sequence (P20309 whole entry): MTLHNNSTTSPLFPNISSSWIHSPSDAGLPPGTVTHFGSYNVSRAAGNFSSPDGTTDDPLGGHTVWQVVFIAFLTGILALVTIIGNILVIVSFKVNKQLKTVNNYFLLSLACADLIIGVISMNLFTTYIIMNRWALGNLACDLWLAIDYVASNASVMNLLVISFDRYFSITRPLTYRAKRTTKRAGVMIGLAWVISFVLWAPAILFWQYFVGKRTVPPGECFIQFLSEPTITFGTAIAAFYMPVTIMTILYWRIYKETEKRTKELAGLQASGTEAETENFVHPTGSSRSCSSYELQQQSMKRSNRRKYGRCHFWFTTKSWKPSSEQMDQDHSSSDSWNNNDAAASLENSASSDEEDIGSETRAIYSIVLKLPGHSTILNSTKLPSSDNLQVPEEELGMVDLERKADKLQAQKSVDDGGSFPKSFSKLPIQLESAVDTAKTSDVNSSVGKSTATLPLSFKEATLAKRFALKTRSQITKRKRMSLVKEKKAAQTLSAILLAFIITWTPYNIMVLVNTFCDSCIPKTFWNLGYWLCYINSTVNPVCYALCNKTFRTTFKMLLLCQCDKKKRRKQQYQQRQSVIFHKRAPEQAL

Turning to `CCOC(=O)N1CCC(C)(N2CCC(N3C(=O)N[C@@H]4CCCC[C@H]43)CC2)CC1` [Example 04, Ethyl 4-[4-[(3aR,7aR)-2-oxo-3a,4,5,6,7,7a-hexahydro-3H-benzoimidazol-1-yl]-1-piperidyl]-4-methyl-piperidine-1-carboxylate], the EC50 was over 4200 nM in assay [1], 3.3 nM in assay [2] and 586 nM in assay [3].

For `CC1(N2CCC(N3C(=O)N[C@H]4CCCC[C@@H]43)CC2)CCN(C(=O)C2CC2)CC1` [Example 03, (3aS,7aS)-1-[1-[1-(cyclopropanecarbonyl)-4-methyl-4-piperidyl]-4-piperidyl]-3a,4,5,6,7,7a-hexahydro-3H-benzoimidazol-2-one], the results for the concentration for a half-maximal effect (EC50) in assay [1], in assay [2] and in assay [3] were over 40000 nM, under 7.1 nM and over 40000 nM, respectively.

As to `CCOC(=O)N1CCC(C)(N2CCC(N3C(=O)N[C@H]4CCCC[C@@H]43)CC2)C1` (mixture of isomers) [Example 07, Ethyl 3-[4-[(3aS,7aS)-2-oxo-3a,4,5,6,7,7a-hexahydro-3H-benzoimidazol-1-yl]-1-piperidyl]-3-methyl-pyrrolidine-1-carboxylate], the concentration giving a half-maximal response (EC50) is over 40000 nM in assay [1], 14 nM in assay [2] and 1100 nM in assay [3].

`CCOC(=O)N1CCC(C)(N2CCC(N3C(=O)N[C@H]4CCCC[C@@H]43)CC2)CC1` [Example 01, Ethyl 4-[4-[(3aS,7aS)-2-oxo-3a,4,5,6,7,7a-hexahydro-3H-benzoimidazol-1-yl]-1-piperidyl]-4-methyl-piperidine-1-carboxylate]: the results for the EC50 in assay [1], in assay [2] and in assay [3] were 1400 nM, 1.9 nM and 49.9 nM, respectively.

As a reminder, the EC50 is the concentration at which the effect is half-maximal.

These data come from patent US8119661B2, “Piperidine derivatives and their use as muscarinic receptor modulators” (AstraZeneca AB, priority 2007, dated 2012).
